“And” between values parts separate entries of the source, which are not always exact repeats. Equal values may be shown once. Numbers after ± are expanded uncertainties.
Settings: horizontal capillary tube

O [water]
surface tension liquid-gas (249.9 K, Metastable liquid): 78.88 ± 0.8 mN/m and 78.87 ± 0.8 mN/m
surface tension liquid-gas (249.91 K, Metastable liquid): 78.91 ± 0.8 mN/m
surface tension liquid-gas (250.79 K, Metastable liquid): 78.85 ± 0.8 mN/m
surface tension liquid-gas (250.8 K, Metastable liquid): 78.72 ± 0.78 mN/m
surface tension liquid-gas (250.81 K, Metastable liquid): 78.72 ± 0.78 mN/m
surface tension liquid-gas (250.82 K, Metastable liquid): 78.72 ± 0.78 mN/m and 78.77 ± 0.78 mN/m and 78.69 ± 0.78 mN/m
surface tension liquid-gas (251.37 K, Metastable liquid): 78.69 ± 0.8 mN/m and 78.66 ± 0.8 mN/m
surface tension liquid-gas (251.39 K, Metastable liquid): 78.68 ± 0.8 mN/m
surface tension liquid-gas (251.91 K, Metastable liquid): 78.65 ± 0.8 mN/m
surface tension liquid-gas (251.92 K, Metastable liquid): 78.65 ± 0.8 mN/m
surface tension liquid-gas (252.81 K, Metastable liquid): 78.39 ± 0.78 mN/m
surface tension liquid-gas (252.82 K, Metastable liquid): 78.47 ± 0.78 mN/m
surface tension liquid-gas (252.86 K, Metastable liquid): 78.51 ± 0.8 mN/m and 78.48 ± 0.8 mN/m and 78.47 ± 0.8 mN/m
surface tension liquid-gas (252.88 K, Metastable liquid): 78.38 ± 0.78 mN/m and 78.4 ± 0.78 mN/m and 78.41 ± 0.78 mN/m
surface tension liquid-gas (253.36 K, Metastable liquid): 78.37 ± 0.78 mN/m and 78.4 ± 0.78 mN/m
surface tension liquid-gas (253.79 K, Metastable liquid): 78.34 ± 0.78 mN/m
surface tension liquid-gas (253.81 K, Metastable liquid): 78.27 ± 0.78 mN/m
surface tension liquid-gas (254.9 K, Metastable liquid): 78.3 ± 0.8 mN/m
surface tension liquid-gas (254.91 K, Metastable liquid): 78.28 ± 0.8 mN/m
surface tension liquid-gas (255.29 K, Metastable liquid): 78.03 ± 0.8 mN/m
surface tension liquid-gas (255.32 K, Metastable liquid): 78.13 ± 0.78 mN/m
surface tension liquid-gas (255.33 K, Metastable liquid): 78.15 ± 0.78 mN/m
surface tension liquid-gas (255.34 K, Metastable liquid): 78.07 ± 0.78 mN/m [middle of 4 runs]
surface tension liquid-gas (255.84 K, Metastable liquid): 78.05 ± 0.78 mN/m and 78.06 ± 0.78 mN/m
surface tension liquid-gas (255.85 K, Metastable liquid): 78.07 ± 0.78 mN/m
surface tension liquid-gas (256.33 K, Metastable liquid): 77.91 ± 0.78 mN/m
surface tension liquid-gas (256.34 K, Metastable liquid): 77.97 ± 0.78 mN/m
surface tension liquid-gas (256.87 K, Metastable liquid): 77.86 ± 0.78 mN/m and 77.87 ± 0.78 mN/m
surface tension liquid-gas (257.83 K, Metastable liquid): 77.72 ± 0.78 mN/m
surface tension liquid-gas (257.84 K, Metastable liquid): 77.75 ± 0.78 mN/m
surface tension liquid-gas (257.87 K, Metastable liquid): 77.94 ± 0.8 mN/m
surface tension liquid-gas (257.88 K, Metastable liquid): 77.92 ± 0.8 mN/m
surface tension liquid-gas (258.8 K, Metastable liquid): 77.63 ± 0.78 mN/m
surface tension liquid-gas (258.81 K, Metastable liquid): 77.61 ± 0.78 mN/m
surface tension liquid-gas (259.3 K, Metastable liquid): 77.59 ± 0.78 mN/m and 77.6 ± 0.78 mN/m
surface tension liquid-gas (259.8 K, Metastable liquid): 77.54 ± 0.78 mN/m and 77.5 ± 0.78 mN/m
surface tension liquid-gas (260.83 K, Metastable liquid): 77.35 ± 0.78 mN/m
surface tension liquid-gas (260.84 K, Metastable liquid): 77.36 ± 0.78 mN/m
surface tension liquid-gas (261.8 K, Metastable liquid): 77.24 ± 0.76 mN/m
surface tension liquid-gas (261.81 K, Metastable liquid): 77.2 ± 0.76 mN/m
surface tension liquid-gas (262.27 K, Metastable liquid): 77.23 ± 0.78 mN/m
surface tension liquid-gas (262.28 K, Metastable liquid): 77.21 ± 0.78 mN/m
surface tension liquid-gas (262.82 K, Metastable liquid): 77.04 ± 0.78 mN/m and 77.06 ± 0.78 mN/m
surface tension liquid-gas (262.83 K, Metastable liquid): 77.07 ± 0.78 mN/m
surface tension liquid-gas (263.26 K, Metastable liquid): 77 ± 0.76 mN/m
surface tension liquid-gas (263.27 K, Metastable liquid): 77.01 ± 0.76 mN/m
surface tension liquid-gas (263.76 K, Metastable liquid): 76.93 ± 0.78 mN/m
surface tension liquid-gas (263.77 K, Metastable liquid): 76.91 ± 0.78 mN/m and 76.87 ± 0.78 mN/m
surface tension liquid-gas (265.74 K, Metastable liquid): 76.71 ± 0.78 mN/m
surface tension liquid-gas (265.75 K, Metastable liquid): 76.75 ± 0.78 mN/m
surface tension liquid-gas (265.76 K, Metastable liquid): 76.61 ± 0.76 mN/m and 76.68 ± 0.76 mN/m and 76.64 ± 0.76 mN/m
surface tension liquid-gas (265.77 K, Metastable liquid): 76.6 ± 0.78 mN/m
surface tension liquid-gas (265.78 K, Metastable liquid): 76.61 ± 0.78 mN/m
surface tension liquid-gas (266.23 K, Metastable liquid): 76.6 ± 0.76 mN/m and 76.58 ± 0.76 mN/m
surface tension liquid-gas (266.74 K, Metastable liquid): 76.55 ± 0.76 mN/m and 76.54 ± 0.76 mN/m
surface tension liquid-gas (268.21 K, Metastable liquid): 76.34 ± 0.76 mN/m and 76.3 ± 0.76 mN/m
surface tension liquid-gas (268.7 K, Metastable liquid): 76.22 ± 0.8 mN/m
surface tension liquid-gas (269.18 K, Metastable liquid): 76.23 ± 0.76 mN/m
surface tension liquid-gas (269.19 K, Metastable liquid): 76.24 ± 0.76 mN/m
surface tension liquid-gas (269.36 K, Metastable liquid): 76.19 ± 0.76 mN/m
surface tension liquid-gas (269.69 K, Metastable liquid): 76.1 ± 0.76 mN/m
surface tension liquid-gas (270.17 K, Metastable liquid): 76.05 ± 0.76 mN/m
surface tension liquid-gas (270.65 K, Metastable liquid): 76.02 ± 0.76 mN/m
surface tension liquid-gas (270.67 K, Metastable liquid): 76.02 ± 0.76 mN/m
surface tension liquid-gas (272.68 K, Metastable liquid): 75.72 ± 0.76 mN/m
surface tension liquid-gas (272.69 K, Metastable liquid): 75.75 ± 0.76 mN/m
surface tension liquid-gas (273.56 K, Metastable liquid): 75.62 ± 0.74 mN/m
surface tension liquid-gas (273.61 K, Metastable liquid): 75.56 ± 0.78 mN/m
surface tension liquid-gas (273.64 K, Metastable liquid): 75.58 ± 0.74 mN/m
surface tension liquid-gas (273.69 K, Metastable liquid): 75.61 ± 0.78 mN/m and 75.64 ± 0.78 mN/m
surface tension liquid-gas (275.62 K, Liquid): 75.24 ± 0.76 mN/m
surface tension liquid-gas (275.63 K, Liquid): 75.28 ± 0.76 mN/m and 75.24 ± 0.76 mN/m
surface tension liquid-gas (276.61 K, Liquid): 75.19 ± 0.76 mN/m
surface tension liquid-gas (276.63 K, Liquid): 75.19 ± 0.76 mN/m and 75.16 ± 0.76 mN/m
surface tension liquid-gas (278.09 K, Liquid): 74.96 ± 0.74 mN/m
surface tension liquid-gas (278.11 K, Liquid): 74.98 ± 0.74 mN/m
surface tension liquid-gas (279.56 K, Liquid): 74.68 ± 0.74 mN/m
surface tension liquid-gas (279.58 K, Liquid): 74.74 ± 0.74 mN/m
surface tension liquid-gas (280.58 K, Liquid): 74.59 ± 0.74 mN/m
surface tension liquid-gas (280.59 K, Liquid): 74.56 ± 0.74 mN/m and 74.58 ± 0.74 mN/m
surface tension liquid-gas (281.55 K, Liquid): 74.41 ± 0.74 mN/m
surface tension liquid-gas (282.06 K, Liquid): 74.39 ± 0.74 mN/m and 74.37 ± 0.74 mN/m
surface tension liquid-gas (283.5 K, Liquid): 74.17 ± 0.74 mN/m
surface tension liquid-gas (283.59 K, Liquid): 74.17 ± 0.74 mN/m
surface tension liquid-gas (283.6 K, Liquid): 74.15 ± 0.74 mN/m
surface tension liquid-gas (283.67 K, Liquid): 74.15 ± 0.74 mN/m
surface tension liquid-gas (284.61 K, Liquid): 74.14 ± 0.74 mN/m
surface tension liquid-gas (284.62 K, Liquid): 74.11 ± 0.74 mN/m
surface tension liquid-gas (292 K, Liquid): 72.91 ± 0.74 mN/m and 72.88 ± 0.74 mN/m
surface tension liquid-gas (293.63 K, Liquid): 72.7 ± 0.76 mN/m and 72.67 ± 0.76 mN/m
surface tension liquid-gas (293.66 K, Liquid): 72.67 ± 0.74 mN/m and 72.7 ± 0.74 mN/m
surface tension liquid-gas (295.63 K, Liquid): 72.36 ± 0.74 mN/m
surface tension liquid-gas (295.65 K, Liquid): 72.33 ± 0.74 mN/m
